Assay results as given in PMC11628400 (Nature Cell Biology, 2024).

Key:
NAT10 [1] = biological target: T1, NAT10 (Homo sapiens, UniProt Q9H0A0); experiment: DARTS; type: cell-based
T1 sequence (Q9H0A0 1-1025): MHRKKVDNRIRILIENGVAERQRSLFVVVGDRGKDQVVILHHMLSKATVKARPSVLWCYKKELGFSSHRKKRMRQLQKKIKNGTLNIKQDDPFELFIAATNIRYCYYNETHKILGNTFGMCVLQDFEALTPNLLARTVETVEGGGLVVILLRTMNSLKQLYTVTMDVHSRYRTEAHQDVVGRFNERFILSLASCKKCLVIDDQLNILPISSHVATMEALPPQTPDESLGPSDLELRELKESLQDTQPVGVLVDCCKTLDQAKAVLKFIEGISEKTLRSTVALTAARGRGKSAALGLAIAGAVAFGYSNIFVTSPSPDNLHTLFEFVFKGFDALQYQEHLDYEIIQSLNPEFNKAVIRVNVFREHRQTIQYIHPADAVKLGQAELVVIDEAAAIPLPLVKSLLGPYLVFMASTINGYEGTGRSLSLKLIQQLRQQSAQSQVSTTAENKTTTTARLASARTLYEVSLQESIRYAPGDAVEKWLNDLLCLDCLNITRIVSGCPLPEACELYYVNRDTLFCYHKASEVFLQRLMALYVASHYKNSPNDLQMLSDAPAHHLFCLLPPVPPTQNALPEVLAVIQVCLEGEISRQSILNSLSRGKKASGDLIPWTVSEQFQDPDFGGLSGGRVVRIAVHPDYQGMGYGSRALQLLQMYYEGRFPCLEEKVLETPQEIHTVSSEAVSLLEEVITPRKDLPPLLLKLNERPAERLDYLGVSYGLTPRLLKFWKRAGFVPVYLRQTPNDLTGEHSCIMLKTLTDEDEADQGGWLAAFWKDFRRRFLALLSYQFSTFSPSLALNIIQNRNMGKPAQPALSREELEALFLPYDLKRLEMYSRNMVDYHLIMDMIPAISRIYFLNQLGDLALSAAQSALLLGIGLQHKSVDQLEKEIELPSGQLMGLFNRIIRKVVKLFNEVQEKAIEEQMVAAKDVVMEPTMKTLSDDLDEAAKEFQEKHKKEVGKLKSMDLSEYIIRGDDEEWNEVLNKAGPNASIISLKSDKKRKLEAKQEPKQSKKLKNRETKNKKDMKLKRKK

NAT10 [2] = biological target: T1, NAT10; experiment: DARTS in MOLM13 lysate; type: cell-based

SMILES	DARTS (protection from pronase digestion) in MOLM13 lysate (NAT10 [1])	DARTS in MOLM13 lysate; CETSA in MonoMac6 cells (NAT10 [2])
Nc1nc(F)nc2c1ncn2[C@@H]1O[C@H](COP(=O)(O)OP(=O)(O)OP(=O)(O)O)[C@@H](O)[C@@H]1O [F-ara-ATP, fludarabine triphosphate]	The binding of fludarabine and F-ara-ATP with NAT10 were confirmed by drug affinity responsive target stability assay (DARTS)	–
N#Cc1ccc(-c2csc(NN=C3CCCC3)n2)cc1 [Remodelin]	–	Thermal shift curves of NAT10 from CETSA assays in MonoMac6 pretreated with fludarabine (F-ara-A), Remodelin or dimethylsulfoxide (DMSO)
Nc1nc(F)nc2c1ncn2[C@@H]1O[C@H](COP(=O)(O)O)[C@@H](O)[C@@H]1O [P-F-ara-A, fludarabine (P-F-ara-A)]	DARTS assays evaluating the efficacy of Remodelin, P-F-ara-A and F-ara-ATP on protecting NAT10 protein against pronase digestion	–
